Laboratory results as given in US9388215B2, “Compositions and methods of using islet neogenesis peptides and analogs thereof” (SHENZHEN HIGHTIDE BIOPHARMACEUTICAL, LTD., priority 2013, dated 2016).

Tests used:
[1] = Peptide stability in human plasma; format: in vitro ADME; conditions: 100 μg/mL, 37° C.; FIG. 4, 15
Experimental: (§1) The stability of peptides was also tested in mouse and human plasma. Briefly, a certain amount of peptides and eucatropine powder (positive control) was accurately weighed. Test compounds were dissolved in 50% methanol-water solution and diluted to 20 mg/mL, and eucatropine was dissolved in dimethylsulfoxide (DMSO) and diluted to 10 mM, as a stock solution. Eucatropine stock solution was diluted to 0.2 mM with DMSO as a working solution. A stop reagent was prepared containing 200 ng/mL midazolam and tolbutamide in acetonitrile. A volume of 300 μL of stop solution was added to each well of a 96-well deep-well plate placed on ice beforehand.
(§2) For the stability studies, peptides and eucatropine were spiked into plasma respectively, mixed well, and then 100 μL of each mixture solution was transferred into the pre-cooled stop reagent as 0 time point sample. The remaining mixtures were incubated in a 37° C. water bath with shaking at 100 rpm (n=2). The final incubation concentration was 1 for eucatropine and 100 μg/mL for all test compounds.
(§3) At desired time points, 100 μL of incubation mixture was transferred to the stop reagent to precipitate proteins. Samples were vortexed and centrifuged at RCF 5000×g for 10 minutes, and supernatant was transferred to a test plate. The samples were analyzed by LC-MS/MS.
(§4) Slope was calculated by plotting the natural logarithm of the percentage of remaining amount of test compounds and time, and T1/2 was calculated in accordance with the following formula.
For stability in human plasma, the incubation time was 0, 30, 60 and 120 min for Peptide 1, Peptide 12, Peptide 16 and eucatropine.
The stability of peptides was also tested in rat, mouse and human plasma. Briefly, a certain amount of peptides and eucatropine powder (positive control) was accurately weighed. Test compounds were dissolved in 50% methanol-water solution and diluted to 20 mg/mL, and eucatropine was dissolved in dimethylsulfoxide (DMSO) and diluted to 10 mM, as a stock solution. Eucatropine stock solution was diluted to 0.2 mM with DMSO as a working solution. […]

[2] = format: physicochemical; conditions: pH 5
Experimental: Peptide stability in buffers was tested for INGAP-PP and selected analogs. 10 mg/mL of Peptide 1, Peptide 12, Peptide 16, Peptide 29 or Peptide 31 was dissolved in isotonic buffers with pH ranging from 4.0 to 8.0. […] Peptide 12 and Peptide 29 were stable in an isotonic phosphate buffer (pH 7.4) for more than 90 days at 4° C. (there was no sign of degradation at 90 days sample check point), and 60 days at 25° C.

[3] = Peptide stability in rat plasma; format: in vitro ADME; conditions: 100 μg/mL, 37° C.; FIG. 12, 13
Experimental: as §1, with “tested in rat, mouse and” for “tested in mouse and”
as §2, with “was 1 μM for eucatropine” for “was 1 for eucatropine”
as §3, §4
For stability in rat plasma, the incubation time was 0, 15, 30, 60 and 120 min for Peptide 1 and eucatropine, and 0, 15, 30, 60, 120, and 240 min for Peptide 12, Peptide 16, Peptide 29 and Peptide 31.
In another stability study in rat plasma, the incubation time was 0, 30, 60 120 and 240 min for Peptide 2, Peptide 52, Peptide 64 and eucatropine.

[4] = Pharmacokinetics in mouse, subcutaneous bolus; format: in vivo; conditions: male, C57BL/6, plasma, MOUSE (SC), 25 mg/kg; for AUC(0-t): read-out: AUC(0-t); for AUC(0-inf): read-out: AUC(0-∞); for Cmax: read-out: Cmax
Experimental: (§5) After 7 days acclimation, male Sprague-Dawley (SD) rats weighing 210-250 g, or male C57BL/6 mice, weighing 19-24 g, in good health were used in the study. Peptide 1, Peptide 12 and Peptide 16 were dissolved in sterile normal saline and then they were injected via subcutaneous (sc) bolus or intravenous (iv) bolus at the dose level of 25 mg/kg. Three animals in each group were used for blood collection at the time point of 5 min, 15 min, 30 min, 1 h, 2 h, 4 h, 6 h, 8 h and 24 h post-dose. Blood samples (approximately 400 μL) were collected and placed into tubes containing EDTA-K2 and centrifuged at 8000 rpm for 6 minutes at 4° C. to separate plasma from the samples. The resulting plasma was stored frozen at −80° C. until being analyzed. Plasma concentrations of peptides were determined using tandem mass spectrometry (LC-MS/MS) analysis. A non-compartmental module of WinNonlin® Professional 5.2 (Pharsight; St. Louis Mo.), was used to calculate PK parameters. The abbreviation AUC(0-t) represents area under the curve from the time of dosing to the time of the last observation, the AUC(0-∞) represents area under the curve from the time of dosing to infinity, and the Cmax represents maximum concentration detected.

[5] = Pharmacokinetics in rat, intravenous bolus; format: in vivo; conditions: male, Sprague-Dawley, plasma, RAT (IV), 25 mg/kg; for AUC(0-t): read-out: AUC(0-t); for AUC(0-inf): read-out: AUC(0-∞); for Cmax: read-out: Cmax
Experimental: as §5

pancreatic islets = assay: Glucose-stimulated insulin secretion (GSIS) of isolated islets; format: cell-based, rat; conditions: 12.0 mM glucose; 10 μg/mL peptide or 100 nM GLP-1; 60 min; FIG. 8
Experimental: The pancreases were procured from male adult Sprague-Dawley (SD) rats. After 7 days acclimation, the animals were sacrificed by cervical dislocation and the entire pancreas was removed and digested with collagenase to isolate islets. After digestion, islets were maintained at 37° C. in RPMI 1640 (Carlsbad Calif., USA) pH 7.4, containing 10% (v/v) fetal calf serum, 1% penicillin/streptomycin, and 10 mM glucose in a humid atmosphere (5% CO2/95% O2), without the addition of any compound (control), or with the addition of 100 nM glucagon like peptide-1 (GLP-1); or 10 μg/mL Peptide 1, Peptide 12, or Peptide 16, as summarized in Table 4 below. Cultured islets were rinsed in Krebs-Ringer bicarbonate buffer (KRB), pH 7.4, previously gassed with a mixture of CO2/O2 (5/95%), and pre-incubated in 1.0 ml of KRB containing 0.5% (w/v) BSA and 1.5 mM glucose at 37° C. for 45 min. After this period, groups of 5 islets were incubated in 0.6 ml KRB with the addition of 1.5 or 12.0 mM glucose, with or without the addition of peptides for 60 min. At the end of the incubation period, aliquots of the medium were collected for insulin quantitation.

Row | time stable in isotonic acetate buffer (pH 5.0) at 4° C. [2] | time stable in isotonic acetate buffer (pH 5.0) at 25° C. [2] | AUC(0-t) [4] [ng·h/mL] | AUC(0-inf) [4] [ng·h/mL] | Cmax [4] [ng/mL] | AUC(0-t) [5] [ng·h/mL] | AUC(0-inf) [5] [ng·h/mL] | Cmax [5] [ng/mL] | Substance | stability in human plasma [1] | stability in rat plasma [3] | glucose-stimulated insulin release vs islets without peptide (pancreatic islets)
1 | up to 90 days | less than 7 days | – | – | – | – | – | – | Ac-IGLHDPSHGTLPNGS-NH2 [Peptide 31, Ac-IGLHDPSHGTLPNGS-NH2] | exhibited good stability in human plasma and were significantly more stable than INGAP-PP | exhibited good stability in rat plasma and were more stable than INGAP-PP | –
2 | up to 90 days | less than 7 days | 11400 | 11400 | 14400 | 12200 | 12200 | 45200 | Ac-IGLHDPSHGTLPNGS-OH [Peptide 16, Ac-IGLHDPSHGTLPNGS-OH] | exhibited good stability in human plasma and were significantly more stable than INGAP-PP | exhibited good stability in rat plasma and were more stable than INGAP-PP | released significantly more insulin than those cultured without the addition of peptides
3 | – | – | 54.5 | 58.3 | 141 | 21.9 | 27.1 | 48.7 | H-IGLHDPSHGTLPNGS-OH [Peptide 1, H-IGLHDPSHGTLPNGS-OH, reference compound] | – | – | no stimulation was observed
